Molecules are shown by their SMILES.

Data set [1] can be described thus: Tolerability in tumor-bearing rats. It counts as in vivo. On the procedure:
(§1) The efficacy of MPG disulfide in improving the response to cisplatin in the breast tumor xenograft model in rats was tested. MPG disulfide was tested against two different tumor sizes. These different tumor sizes were achieved by growing the tumor in rats for up to 6 days (small tumor, FIG. 13) or 12 days (large tumor, FIGS. 14 and 15). MPG disulfide was determined to be non-toxic to the animals.
(§2) The response of tumors to MPG disulfide was determined in rats with either small tumors (approximately 139 mm^3) or large tumors (approximately 2837 mm^3). MPG disulfide in physiological saline was administered at 40 mg/Kg/day via IP injections. The control animals were treated with saline. This treatment was continued for three consecutive days. […] Each group (control or MPG disulfide) consists of at least three animals. Each data point is mean of at least three animals with standard error as shown unless smaller than points plotted.
(§3) The improved response of large tumors to cisplatin by MPG disulfide was determined in rats with tumors of approximately 2837 mm^3 in tumor volume. MPG disulfide in physiological saline was administered at 40 mg/kg/day via IP injections. At one hour after MPG disulfide administration, cisplatin (2 mg/kg) was administered to these rats by IP. MPG treatment alone without cisplatin was continued for two more days in these animals. […] Each group (cisplatin or MPG disulfide with cisplatin) consists of at least three animals. Each data point is mean of at least three animals with standard error as shown unless smaller than points plotted.

The subject of data set [2] is breast tumor xenograft. The data set is described as follows: Breast tumor xenograft model in rats, MPG disulfide with or without cisplatin. It is filed as in vivo. On the procedure:
as §1, §2, §3

Data set [3] has as its system human colon cancer cells HT29. The experiment in a line: Depletion of intracellular thiols (Ellman's reagent). It counts as cell-based. To be noted: HEDS 3 hours. On the procedure: […] After three hours of HEDS treatment, the attached cells were washed with cell rinse and lysed with 1 ml of sulphosalicyclic acid (SSA) lysis buffer. The samples were then centrifuged at high speed in a Fisher 59A microfuge and the supernatant was used for quantification of intracellular thiols using Ellman's reagent. Each experiment was repeated at least three times with errors as shown unless smaller than points plotted.

Data set [4] has as its system breast cancer cell line (MCF7). The experiment in a line: Radiation response (survival after 4Gy γ irradiation) with HEDS. To be noted: MCF7, absence of glucose. It is filed as cell-based, human. From the text: (§4) FIGS. 17 and 18 show the impact of HEDS on the radiation response of a breast cancer cell line (MCF7) and a prostate cancer cell line (DU145) in the presence and absence of glucose.

Data set [5] has as its system prostate cancer cell line (DU145). Described as above. It is filed as cell-based, human. To be noted: DU145, absence of glucose.
Description: as §4

Data set [6] relates to HT29 cells. The experiment in a line: Colony assay, HEDS plus 4 Gy irradiation. It is filed as cell-based, human. To be noted: HT29, absence of glucose, HEDS 1 hour before 4 Gy irradiation. How it is done:
(§5) For FIG. 3, radiation resistant human colon cancer cells HT29 were deprived of glucose for 4 hours and then treated with various concentrations of HEDS for 3 hours. The cells were washed and replenished with fresh growth medium. For FIG. 4, HT29 cells were deprived of glucose for 4 hours, treated with various concentrations of HEDS, and then treated for 1 hour before 4 Gy irradiation. Two hours after irradiation, the cells were washed and replenished with fresh growth medium. Colony assays were carried out by plating cells at concentration that gives no more than 200 colonies. Each experiment was repeated at least three times with errors as shown unless smaller than points plotted. […]

Data set [7] relates to radiation sensitive human colon cancer cells HCT116. The data set is described as follows: Clonogenic (colony) assay, HEDS alone. It is filed as cell-based. On the procedure: In FIG. […] The cells were washed and replenished with fresh growth medium. Colony assays were carried out by plating cells at concentration that gives no more than 200 colonies. Each experiment was repeated at least three times with errors as shown unless smaller than points plotted.

The test system of data set [8] is HCT116 cells. The experiment in a line: Colony assay, HEDS plus 4 Gy irradiation. It counts as cell-based, human. Conditions: HCT116, absence of glucose, HEDS 1 hour before 4 Gy irradiation. On the procedure:
For FIG. 2, HCT116 cells were deprived of glucose for 4 hours, treated with various concentrations of HEDS for 1 hour, and then exposed to 4 Gy irradiation. Two hours after irradiation, the cells were washed and replenished with fresh growth medium. The colony assay was then performed as described above for FIG. 1.

Data set [9] deals with human colon cancer cells HCT116. The data set is described as follows: Depletion of intracellular thiols (Ellman's reagent). Conditions: HEDS 3 hours. It is filed as cell-based. How it is done: The depletion of intracellular thiols by HEDS in human colon cancer cells HCT116 and HT29 was determined by first depriving the cells of glucose for 4 hours. After three hours of HEDS treatment, the attached cells were washed with cell rinse and lysed with 1 ml of sulphosalicyclic acid (SSA) lysis buffer. The samples were then centrifuged at high speed in a Fisher 59A microfuge and the supernatant was used for quantification of intracellular thiols using Ellman's reagent. Each experiment was repeated at least three times with errors as shown unless smaller than points plotted.
For the estimation of intracellular thiols in HCT116 cells, the cells were incubated with different concentrations of glucose for 4 hours. For FIG. 12, the cells were then treated with HEDS for 3 hours. After treatment, the attached cells were washed with cell rinse and lysed with 1 ml of sulphosalicyclic acid (SSA) lysis buffer. The samples were centrifuged at high speed in a Fisher 59A microfuge and the supernatant was used for quantification of intracellular thiols using Ellman's reagent. Each experiment was repeated at least three times with errors as shown unless smaller than points plotted.

In data set [10] the test system is breast tumor xenografts. The experiment in a line: Response of tumor xenografts in rats to etoposide with HEDS. It counts as in vivo. Conditions: HEDS 10 mg/kg/day IP one hour before etoposide 12 mg/Kg/day IP, three consecutive days, tumor about 8×8 mm. On the procedure:
The use of HEDS, an oxidant/disulfide, to increase the response of tumor xenografts to topoisomerase II inhibitor, etoposide, was also investigated. […] The effect of HEDS (0 and 10 mg/kg/day) on the response of tumor to etoposide (12 mg/Kg/day) was determined in rats with tumor of approximately 8×8 mm in size. HEDS in physiological saline was administered at 0 and 10 mg/kg via IP injections. At one hour after HEDS administration, etoposide was administered to these rats by IP. This treatment was continued for three consecutive days. Tumor growth was measured twice a week for up to two weeks.

Data set [11] deals with radiation resistant human colon cancer cells HT29. The data set is described as follows: Clonogenic (colony) assay, HEDS alone. It counts as cell-based. How it is done:
as §5

For the compound `CC(SSC(C)C(=O)NCC(=O)O)C(=O)NCC(=O)O` (stereo not drawn) [MPG disulfide, disulfide of mercaptopropionylglycine (MPG) (glycinepropionyldisulfide)], the observable side effects result in data set [1] (MPG disulfide 40 mg/Kg/day IP, three consecutive days) was “did not cause any observable side effects”; in data set [1] (MPG disulfide 40 mg/kg/day IP with cisplatin 2 mg/kg IP, MPG continued two more days), “did not cause any observable side effects”. The “toxicity to the animals” value in [1] (rats with breast tumor xenograft) is “non-toxic”. The effect on tumors result in data set [2] (MPG disulfide in combination with cisplatin, even large tumors) is reported as “completely eliminated tumors”. In addition, the “tumor volume on day 13 after the start of the treatment” value in data set [2] (large tumors, MPG disulfide 40 mg/kg/day IP (3 days) in combination with cisplatin 2 mg/kg IP) stood at 112±47 mm^3. In addition, the “increase in tumor size” value in data set [2] (large tumors, MPG disulfide alone 40 mg/Kg/day IP, day 5 after the treatment) came out at 3 fold. For the same compound, the “tumor volume at start of treatment” value came out at 2848±538 mm^3 in [2] (large tumors, MPG disulfide alone group, baseline); 2402±218 mm^3 in data set [2] (large tumors, cisplatin and MPG disulfide combination group, baseline). For the same compound, the “tumor smaller than the untreated animals” value in data set [2] (large tumors, MPG disulfide alone, day 5 after the treatment) was 2.5 fold. In data set [2] (large tumors, MPG disulfide alone, day 8), the maximum tumor size is 18,038±1289 mm^3. Further, the “tumor smaller compared to cisplatin group” value in data set [2] (large tumors, MPG disulfide in combination with cisplatin, day 13) came out at 38 fold. Further, in data set [2] (small tumors, MPG disulfide alone 40 mg/Kg/day IP, three consecutive days), the “tumor volume on day 13” value is 126±119 mm^3. Further, in data set [2] (small tumors, MPG disulfide alone 40 mg/Kg/day IP, to day 13), the “growth of small size tumors” value was “completely inhibited the growth”. Besides, in data set [2] (small tumors, MPG disulfide alone group, baseline), the “tumor volume on the day of treatment” value was 139±4.29 mm^3.

For `OCCSSCCO` [HEDS, hydroxyethyldisulfide], the intracellular thiols is given as ≥ 40 % of the control in [3] (HT29, glucose deprived 4 hours); “maintaining the intracellular thiols” in [3] (HT29, with glucose); ≥ 40 % of the control in [9] (HCT116, glucose deprived 4 hours); “intracellular thiol depletion” in [9] (HCT116, low concentrations (1-3 mM) of glucose); “maintaining the intracellular thiols” in data set [9] (HCT116, with glucose). For the same compound, the radiation response entry in [4] and in [5] was “significantly increased” each time. Moreover, the sensitization to radiation entry in data set [6] and in data set [8] was “sensitization” in each case. Also, the “cytotoxic effect (clonogenic survival)” value in data set [7] (HCT116, HEDS alone 3 hours, presence of glucose) is given as “little/no cytotoxic effects”; in data set [11] (HT29, HEDS alone 3 hours, presence of glucose) it was “little/no cytotoxic effects”. The same compound returned a decrease in survival in data set [7] (HCT116, absence of glucose (deprived 4 hours), higher concentration of HEDS alone, 3 hours) of 75%. Further, the “better tumor response with HEDS and etoposide compared to etoposide alone” value in data set [10] is on record as “at least 50%”. Also, in data set [11] (HT29, absence of glucose (deprived 4 hours), higher concentration of HEDS alone), the effect on survival entry was “no significant effect”.

Regarding `N.N.[Cl][Pt][Cl]` [Cisplatin, cis-diamine-dichloroplatinum (II), reference compound], the “tumor volume on day 13 after the treatment” value in [2] (large tumors, cisplatin alone 2 mg/kg IP) is reported as 4355±577 mm^3. For the same compound, the “tumor volume at start of treatment” value in [2] (large tumors, cisplatin alone group, baseline) was 2948±180 mm^3.
